Experimental data: patent US5916904A, “Antimicrobial agent” (Eisai Co., Ltd., priority 1992, dated 1999)
≈ marks a conversion by molar mass, not a printed value.

Tests used:
C. pylori NCTC11637 = test: MIC by agar dilution method, C. pylori standard strain NCTC11637; assay type: cell-based; conditions: Helicobacter pylori, 72 h, in vitro, 37° C., pH 7.0, 3 days, microaerophilic, read-out: antibiotic activity (MIC)
C. pylori NCTC11916 = test: MIC by agar dilution method, C. pylori standard strain NCTC11916; assay type: cell-based; conditions: Helicobacter pylori, 72 h, in vitro, 37° C., pH 7.0, 3 days, microaerophilic, read-out: antibiotic activity (MIC)
C. pylori EI-2 = test: MIC by agar dilution method, C. pylori clinical isolate EI-2; assay type: cell-based; conditions: Helicobacter pylori, EI2, 72 h; EI-2, clinical isolate; in vitro, 37° C., pH 7.0, 3 days, microaerophilic; read-out: antibiotic activity (MIC)
C. pylori EI-5 = test: MIC by agar dilution method, C. pylori clinical isolate EI-5; assay type: cell-based; conditions: Helicobacter pylori, EI5, 72 h; EI-5, clinical isolate; in vitro, 37° C., pH 7.0, 3 days, microaerophilic; read-out: antibiotic activity (MIC)
C. pylori EI-36 = test: MIC by agar dilution method, C. pylori clinical isolate EI-36; assay type: cell-based; conditions: Helicobacter pylori, EI36, 72 h; EI-36, clinical isolate; in vitro, 37° C., pH 7.0, 3 days, microaerophilic; read-out: antibiotic activity (MIC)
C. pylori EI-46 = test: MIC by agar dilution method, C. pylori clinical isolate EI-46; assay type: cell-based; conditions: Helicobacter pylori, EI46, 72 h; EI-46, clinical isolate (resistant); in vitro, 37° C., pH 7.0, 3 days, microaerophilic; read-out: antibiotic activity (MIC)
C. pylori EI-391 = test: MIC by agar dilution method, C. pylori clinical isolate EI-391; assay type: cell-based; conditions: Helicobacter pylori, EI391, 72 h; EI-391, clinical isolate (resistant); in vitro, 37° C., pH 7.0, 3 days, microaerophilic; read-out: antibiotic activity (MIC)
C. pylori EI-393 = test: MIC by agar dilution method, C. pylori clinical isolate EI-393; assay type: cell-based; conditions: Helicobacter pylori, EI393, 72 h; EI-393, clinical isolate; in vitro, 37° C., pH 7.0, 3 days, microaerophilic; read-out: antibiotic activity (MIC)
C. pylori EI-397 = test: MIC by agar dilution method, C. pylori clinical isolate EI-397; assay type: cell-based; conditions: Helicobacter pylori, EI397, 72 h; EI-397, clinical isolate; in vitro, 37° C., pH 7.0, 3 days, microaerophilic; read-out: antibiotic activity (MIC)
C. pylori EI-429 = test: MIC by agar dilution method, C. pylori clinical isolate EI-429; assay type: cell-based; conditions: Helicobacter pylori, EI429, 72 h; EI-429, clinical isolate; in vitro, 37° C., pH 7.0, 3 days, microaerophilic; read-out: antibiotic activity (MIC)
C. pylori EI-467 = test: MIC by agar dilution method, C. pylori clinical isolate EI-467; assay type: cell-based; conditions: Helicobacter pylori, EI467, 72 h; EI-467, clinical isolate; in vitro, 37° C., pH 7.0, 3 days, microaerophilic; read-out: antibiotic activity (MIC)
C. pylori EI-612 = test: MIC by agar dilution method, C. pylori clinical isolate EI-612; assay type: cell-based; conditions: Helicobacter pylori, EI612, 72 h; EI-612, clinical isolate; in vitro, 37° C., pH 7.0, 3 days, microaerophilic; read-out: antibiotic activity (MIC)
C. pylori EI-925 = test: MIC by agar dilution method, C. pylori clinical isolate EI-925; assay type: cell-based; conditions: Helicobacter pylori, EI925, 72 h; EI-925, clinical isolate; in vitro, 37° C., pH 7.0, 3 days, microaerophilic; read-out: antibiotic activity (MIC)
C. pylori EI-930 = test: MIC by agar dilution method, C. pylori clinical isolate EI-930; assay type: cell-based; conditions: Helicobacter pylori, EI930, 72 h; EI-930, clinical isolate; in vitro, 37° C., pH 7.0, 3 days, microaerophilic; read-out: antibiotic activity (MIC)
C. pylori EI-933 = test: MIC by agar dilution method, C. pylori clinical isolate EI-933; assay type: cell-based; conditions: Helicobacter pylori, EI933, 72 h; EI-933, clinical isolate; in vitro, 37° C., pH 7.0, 3 days, microaerophilic; read-out: antibiotic activity (MIC)
[1] = Acute Toxicological Test in rats; conditions: rat, in vivo, one time
Experimental: (§1) The compound (I) of the invention was administered Intravenously or orally one time, with a carrier of saline, to Slc:SD rats and Slc:ICR mouse, each being 7 or 8 weeks old, in a group consisting of five males and five females, to determine LD50 values.
(§2) Acute toxicity of the compound (I) is shown in terms of LD50 in unit of mg/kg.

[2] = Acute Toxicological Test in mice; conditions: mouse, in vivo, one time
Experimental: as §1, §2

C. pylori [3] = test: antibiotic activity against C. pylori, overall conclusion; assay type: cell-based; conditions: compared with antibiotic substances / known compounds
[4] = tested on: C. pylori NCTC-11916, NCTC-11637, PCL-56, CPY-0011-1, KS-13, CLO-1 and CLO-6; conditions: standard strains and clinical isolates; JP-A 3-173817; cited from earlier work
C. pylori 8005 = conditions: C. pylori 8005, clinical isolate; JP-A 2-209809; cited from earlier work
C. pylori [5] = conditions: JP-A 2-209809 and JP-A 3-173817; cited from earlier work

SMILES | MIC (C. pylori NCTC11637) [µg/mL] | MIC (C. pylori NCTC11916) [µg/mL] | MIC (C. pylori EI-2) [µg/mL] | MIC (C. pylori EI-5) [µg/mL] | MIC (C. pylori EI-36) [µg/mL] | MIC (C. pylori EI-46) [µg/mL] | MIC (C. pylori EI-391) [µg/mL] | MIC (C. pylori EI-393) [µg/mL] | MIC (C. pylori EI-397) [µg/mL] | MIC (C. pylori EI-429) [µg/mL] | MIC (C. pylori EI-467) [µg/mL] | MIC (C. pylori EI-612) [µg/mL] | MIC (C. pylori EI-925) [µg/mL] | MIC (C. pylori EI-930) [µg/mL] | MIC (C. pylori EI-933) [µg/mL] | also measured
COCCCOc1ccnc(C[S+]([O-])c2nc3ccccc3[nH]2)c1C (stereo not drawn) [(I), 2-[(4-(3-Methoxypropoxy)-3-methylpyridine-2-yl)-methylsulfinyl]-1H-benzimidazole] | 3.13 (≈ 8.71 µM) | 3.13 (≈ 8.71 µM) | 3.13 (≈ 8.71 µM) | 3.13 (≈ 8.71 µM) | 6.25 (≈ 17.4 µM) | 3.13 (≈ 8.71 µM) | 3.13 (≈ 8.71 µM) | 3.13 (≈ 8.71 µM) | 3.13 (≈ 8.71 µM) | 1.56 (≈ 4.34 µM) | 1.56 (≈ 4.34 µM) | 0.4 (≈ 1.11 µM) | 3.13 (≈ 8.71 µM) | 3.13 (≈ 8.71 µM) | 3.13 (≈ 8.71 µM) | LD50 ([1]; iv, female): 152 mg/kg; LD50 ([1]; iv, male): 157 mg/kg; LD50 ([1]; po, female): 1330 mg/kg; LD50 ([1]; po, male): 1450 mg/kg; LD50 ([2]; iv, female): 237 mg/kg; LD50 ([2]; iv, male): 220 mg/kg; LD50 ([2]; po, female): 1010 mg/kg; LD50 ([2]; po, male): 1210 mg/kg; C. pylori-eradicating activity (C. pylori [3]): the same C. pylori-eradicating activity as an antibiotic substance
Cc1c(OCC(F)(F)C(F)F)ccnc1CSc1nc2ccccc2[nH]1 [JP-A 3-173817 compound (12), 2-[{3-Methyl-4-(2,2,3,3-tetrafluoropropoxy)pyrid-2-yl}methylthio]-1H-benzimidazole] |  |  |  |  |  |  |  |  |  |  |  |  |  |  |  | antibiotic activity [4]: activity against all the tested strains
CC1(C)S[C@@H]2[C@H](NC(=O)[C@H](N)c3ccccc3)C(=O)N2[C@H]1C(=O)O [(VII), ampicillin] | 0.4 (≈ 1.14 µM) | 0.05 (≈ 0.143 µM) | 0.4 (≈ 1.14 µM) | 0.4 (≈ 1.14 µM) | 0.2 (≈ 0.572 µM) | 0.05 (≈ 0.143 µM) | 0.1 (≈ 0.286 µM) | 0.1 (≈ 0.286 µM) | 0.1 (≈ 0.286 µM) | 0.2 (≈ 0.572 µM) | 0.05 (≈ 0.143 µM) | 0.05 (≈ 0.143 µM) | 0.2 (≈ 0.572 µM) | 0.4 (≈ 1.14 µM) | 0.05 (≈ 0.143 µM) | 
Cc1c(OCC(F)(F)C(F)(F)F)ccnc1CSc1nc2ccccc2[nH]1 [JP-A 3-173817 compound (13), 2-[{3-Methyl-4-(2,2,3,3,3-pentafluoropropoxy)pyrid-2-yl}methylthio]-1H-benzimidazole] |  |  |  |  |  |  |  |  |  |  |  |  |  |  |  | antibiotic activity [4]: activity against all the tested strains
COc1ccc2[nH]c(SCc3ncc(C)c(OC)c3C)nc2c1 [(IV), 5-Methoxy-2-{(4-methoxy-3,5-dimethyl-2-pyridinyl)methylthio}-1H-benzimidazole] | 25 (≈ 75.9 µM) | 12.5 (≈ 37.9 µM) | 25 (≈ 75.9 µM) | 25 (≈ 75.9 µM) | 12.5 (≈ 37.9 µM) | 12.5 (≈ 37.9 µM) | 25 (≈ 75.9 µM) | 25 (≈ 75.9 µM) | 25 (≈ 75.9 µM) | 25 (≈ 75.9 µM) | 12.5 (≈ 37.9 µM) | 12.5 (≈ 37.9 µM) | 12.5 (≈ 37.9 µM) | 12.5 (≈ 37.9 µM) | 12.5 (≈ 37.9 µM) | 
Cc1c(OCC(F)(F)F)ccnc1CSc1nc2ccccc2[nH]1 [(V), 2-[{3-Methyl-4-(2,2,2-trifluoroethoxy)pyrid-2-yl}methylthio]-1H-benzimidazole] | 25 (≈ 70.7 µM) | 12.5 (≈ 35.4 µM) | 25 (≈ 70.7 µM) | 12.5 (≈ 35.4 µM) | 12.5 (≈ 35.4 µM) | 12.5 (≈ 35.4 µM) | 12.5 (≈ 35.4 µM) | 25 (≈ 70.7 µM) | 25 (≈ 70.7 µM) | 25 (≈ 70.7 µM) | 12.5 (≈ 35.4 µM) | 6.25 (≈ 17.7 µM) | 12.5 (≈ 35.4 µM) | 12.5 (≈ 35.4 µM) | 12.5 (≈ 35.4 µM) | 
CC[C@H]1OC(=O)[C@H](C)[C@@H](O[C@H]2C[C@@](C)(OC)[C@@H](O)[C@H](C)O2)[C@H](C)[C@@H](O[C@@H]2O[C@H](C)C[C@H](N(C)C)[C@H]2O)[C@](C)(O)C[C@@H](C)/C(=N\OCOCCOC)[C@H](C)[C@@H](O)[C@]1(C)O [(VI), roxithromycin] | 0.4 (≈ 0.478 µM) | 0.1 (≈ 0.119 µM) | 0.2 (≈ 0.239 µM) | 0.2 (≈ 0.239 µM) | 0.2 (≈ 0.239 µM) | > 100 | 50 (≈ 59.7 µM) | 0.2 (≈ 0.239 µM) | 0.2 (≈ 0.239 µM) | 0.2 (≈ 0.239 µM) | 0.2 (≈ 0.239 µM) | 0.2 (≈ 0.239 µM) | 0.2 (≈ 0.239 µM) | 0.4 (≈ 0.478 µM) | 0.1 (≈ 0.119 µM) | 
COc1ccc2[nH]c([S+]([O-])Cc3ncc(C)c(OC)c3C)nc2c1 (stereo not drawn) [(III), 5-Methoxy-2-[{(4-methoxy-3,5-dimethyl-2-pyridinyl)methyl}sulfinyl]-1H-benzimidazole] | 50 (≈ 145 µM) | 25 (≈ 72.4 µM) | 25 (≈ 72.4 µM) | 50 (≈ 145 µM) | 25 (≈ 72.4 µM) | 25 (≈ 72.4 µM) | 50 (≈ 145 µM) | 50 (≈ 145 µM) | 50 (≈ 145 µM) | 25 (≈ 72.4 µM) | 50 (≈ 145 µM) | 25 (≈ 72.4 µM) | 25 (≈ 72.4 µM) | 25 (≈ 72.4 µM) | 25 (≈ 72.4 µM) | antibiotic activity (C. pylori 8005): has antibiotic activity against C. pylori 8005; antibiotic activity (C. pylori [5]): lacks sufficient antibiotic activity
CC1COc2c(N3CCN(C)CC3)c(F)cc3c(=O)c(C(=O)O)cn1c23 (stereo not drawn) [(VIII), ofloxacin] | 0.8 (≈ 2.21 µM) | 0.8 (≈ 2.21 µM) | 0.8 (≈ 2.21 µM) | 0.8 (≈ 2.21 µM) | 0.8 (≈ 2.21 µM) | 3.13 (≈ 8.66 µM) | 25 (≈ 69.2 µM) | 0.8 (≈ 2.21 µM) | 0.8 (≈ 2.21 µM) | 0.8 (≈ 2.21 µM) | 0.4 (≈ 1.11 µM) | 0.8 (≈ 2.21 µM) | 0.4 (≈ 1.11 µM) | 0.8 (≈ 2.21 µM) | 0.4 (≈ 1.11 µM) | 
Cc1c(OCC(F)(F)C(F)(F)C(F)F)ccnc1CSc1nc2ccccc2[nH]1 [JP-A 3-173817 compound (14), 2-[{3-Methyl-4-(2,2,3,3,4,4-hexafluorobutoxy)pyrid-2-yl}methylthio]-1H-benzimidazole] |  |  |  |  |  |  |  |  |  |  |  |  |  |  |  | antibiotic activity [4]: activity against all the tested strains
COCCCOc1ccnc(CSc2nc3ccccc3[nH]2)c1C [(II), 2-[(4-(3-Methoxypropoxy)-3-methylpyridine-2-yl)-methylthio]-1H-benzimidazole] | 0.8 (≈ 2.33 µM) | 0.2 (≈ 0.582 µM) | 0.4 (≈ 1.16 µM) | 0.2 (≈ 0.582 µM) | 0.4 (≈ 1.16 µM) | 0.4 (≈ 1.16 µM) | 1.56 (≈ 4.54 µM) | 1.56 (≈ 4.54 µM) | 1.56 (≈ 4.54 µM) | 1.56 (≈ 4.54 µM) | 1.56 (≈ 4.54 µM) | 0.8 (≈ 2.33 µM) | 0.4 (≈ 1.16 µM) | 0.4 (≈ 1.16 µM) | 0.8 (≈ 2.33 µM) | C. pylori-eradicating activity (C. pylori [3]): the same C. pylori-eradicating activity as an antibiotic substance
